Here are results for three compounds from US20180016616A1, “METHODS AND COMPOSITIONS FOR THE DETECTION OF FUNCTIONAL CLOSTRIDIUM DIFFICILE TOXINS” (BOARD OF REGENTS OF THE UNIVERSITY OF TEXAS SYSTEM, priority 2011, published 2018).

Read-outs that look alike come from different tables or passages of the source.

For one test, the system named is C. difficile spores. The conditions noted are these: 0.1% or approximately 1.9 mM.
The test system of the next test is mammalian β-glucosidases. To be noted: cited from earlier work.
Test [1] deals with C. difficile toxins A and B. The conditions noted are these: 0.1% or approximately 1.9 mM.
For test [2], the target named is T1, C. difficile toxin A (Clostridioides difficile, UniProt P16154). To be noted: 0-300 mM.
Test [3] deals with T1, C. difficile toxin A. Kind of test: biochemical. To be noted: read-out: reduction of toxin A activity (percent inhibition).
In test [4] the target is T2, C. difficile toxin B (Clostridioides difficile, UniProt P18177). The conditions noted are these: 0-300 mM.
Test [5] has as its target T2, C. difficile toxin B. In words: biochemical. The conditions noted are these: read-out: reduction of toxin B activity (percent inhibition).
In test [6] the test system is C. difficile toxins A and B. In words: Evaluation of chromogenic substrates for the Cdifftox Activity assay. It is filed as biochemical, Clostridium difficile. The procedure:
A Cdifftox Activity assay was used to identify fractions that contained PNPG cleavage activity. The assay consists of the Cdifftox substrate reagent composed of 10 mM PNPG, 50 mM Tris-HCl (pH 7.4), 50 mM NaCl, and 100 μM MnCl2. The assay was performed in Costar sterile polystyrene 96-well plates (Corning Inc., NY) by adding to each well 200 μl of sample or culture supernatant fluid containing the toxins and 100 μl of the reagent. The plate was incubated at 37° C. for 1-4 hrs and each reaction was stopped by the addition to the well of 40 μl of 3 M Na2CO3. Cleavage of the substrate was monitored by measuring the absorbance between 400-500 nm, with a SPECTRA max at 410 nm.
Plus 384 spectrophotometer (Molecular Devices, Sunnyvale, Calif.). To identify the best substrate for the assay, a number of substrates were evaluated including: p-nitrophenyl-α-D-glucopyranoside, 4-aminophenyl-α-D-glucopyranoside, 4-amino-phenyl-β-D-glucopyranoside, 5-benzyloxy-3-indoxyl-β-D-glucopyranoside, 5-bromo-6-chloro-3-indoxyl-β-D-glucopyranoside, 6-bromo-2-naphthyl-α-D-glucopyranoside, 6-chloro-3-indoxyl-α-D-glucopyranoside, 6-chloro-3-indoxyl-N-acetyl-beta-D-glucos-aminide, 5-bromo-3-indoxyl-β-D-galactopyranoside, and 5-bromo-4-chloro-3-indoxyl-β-D-galactopyranoside. […]

T1 sequence (P16154 whole entry, looked up): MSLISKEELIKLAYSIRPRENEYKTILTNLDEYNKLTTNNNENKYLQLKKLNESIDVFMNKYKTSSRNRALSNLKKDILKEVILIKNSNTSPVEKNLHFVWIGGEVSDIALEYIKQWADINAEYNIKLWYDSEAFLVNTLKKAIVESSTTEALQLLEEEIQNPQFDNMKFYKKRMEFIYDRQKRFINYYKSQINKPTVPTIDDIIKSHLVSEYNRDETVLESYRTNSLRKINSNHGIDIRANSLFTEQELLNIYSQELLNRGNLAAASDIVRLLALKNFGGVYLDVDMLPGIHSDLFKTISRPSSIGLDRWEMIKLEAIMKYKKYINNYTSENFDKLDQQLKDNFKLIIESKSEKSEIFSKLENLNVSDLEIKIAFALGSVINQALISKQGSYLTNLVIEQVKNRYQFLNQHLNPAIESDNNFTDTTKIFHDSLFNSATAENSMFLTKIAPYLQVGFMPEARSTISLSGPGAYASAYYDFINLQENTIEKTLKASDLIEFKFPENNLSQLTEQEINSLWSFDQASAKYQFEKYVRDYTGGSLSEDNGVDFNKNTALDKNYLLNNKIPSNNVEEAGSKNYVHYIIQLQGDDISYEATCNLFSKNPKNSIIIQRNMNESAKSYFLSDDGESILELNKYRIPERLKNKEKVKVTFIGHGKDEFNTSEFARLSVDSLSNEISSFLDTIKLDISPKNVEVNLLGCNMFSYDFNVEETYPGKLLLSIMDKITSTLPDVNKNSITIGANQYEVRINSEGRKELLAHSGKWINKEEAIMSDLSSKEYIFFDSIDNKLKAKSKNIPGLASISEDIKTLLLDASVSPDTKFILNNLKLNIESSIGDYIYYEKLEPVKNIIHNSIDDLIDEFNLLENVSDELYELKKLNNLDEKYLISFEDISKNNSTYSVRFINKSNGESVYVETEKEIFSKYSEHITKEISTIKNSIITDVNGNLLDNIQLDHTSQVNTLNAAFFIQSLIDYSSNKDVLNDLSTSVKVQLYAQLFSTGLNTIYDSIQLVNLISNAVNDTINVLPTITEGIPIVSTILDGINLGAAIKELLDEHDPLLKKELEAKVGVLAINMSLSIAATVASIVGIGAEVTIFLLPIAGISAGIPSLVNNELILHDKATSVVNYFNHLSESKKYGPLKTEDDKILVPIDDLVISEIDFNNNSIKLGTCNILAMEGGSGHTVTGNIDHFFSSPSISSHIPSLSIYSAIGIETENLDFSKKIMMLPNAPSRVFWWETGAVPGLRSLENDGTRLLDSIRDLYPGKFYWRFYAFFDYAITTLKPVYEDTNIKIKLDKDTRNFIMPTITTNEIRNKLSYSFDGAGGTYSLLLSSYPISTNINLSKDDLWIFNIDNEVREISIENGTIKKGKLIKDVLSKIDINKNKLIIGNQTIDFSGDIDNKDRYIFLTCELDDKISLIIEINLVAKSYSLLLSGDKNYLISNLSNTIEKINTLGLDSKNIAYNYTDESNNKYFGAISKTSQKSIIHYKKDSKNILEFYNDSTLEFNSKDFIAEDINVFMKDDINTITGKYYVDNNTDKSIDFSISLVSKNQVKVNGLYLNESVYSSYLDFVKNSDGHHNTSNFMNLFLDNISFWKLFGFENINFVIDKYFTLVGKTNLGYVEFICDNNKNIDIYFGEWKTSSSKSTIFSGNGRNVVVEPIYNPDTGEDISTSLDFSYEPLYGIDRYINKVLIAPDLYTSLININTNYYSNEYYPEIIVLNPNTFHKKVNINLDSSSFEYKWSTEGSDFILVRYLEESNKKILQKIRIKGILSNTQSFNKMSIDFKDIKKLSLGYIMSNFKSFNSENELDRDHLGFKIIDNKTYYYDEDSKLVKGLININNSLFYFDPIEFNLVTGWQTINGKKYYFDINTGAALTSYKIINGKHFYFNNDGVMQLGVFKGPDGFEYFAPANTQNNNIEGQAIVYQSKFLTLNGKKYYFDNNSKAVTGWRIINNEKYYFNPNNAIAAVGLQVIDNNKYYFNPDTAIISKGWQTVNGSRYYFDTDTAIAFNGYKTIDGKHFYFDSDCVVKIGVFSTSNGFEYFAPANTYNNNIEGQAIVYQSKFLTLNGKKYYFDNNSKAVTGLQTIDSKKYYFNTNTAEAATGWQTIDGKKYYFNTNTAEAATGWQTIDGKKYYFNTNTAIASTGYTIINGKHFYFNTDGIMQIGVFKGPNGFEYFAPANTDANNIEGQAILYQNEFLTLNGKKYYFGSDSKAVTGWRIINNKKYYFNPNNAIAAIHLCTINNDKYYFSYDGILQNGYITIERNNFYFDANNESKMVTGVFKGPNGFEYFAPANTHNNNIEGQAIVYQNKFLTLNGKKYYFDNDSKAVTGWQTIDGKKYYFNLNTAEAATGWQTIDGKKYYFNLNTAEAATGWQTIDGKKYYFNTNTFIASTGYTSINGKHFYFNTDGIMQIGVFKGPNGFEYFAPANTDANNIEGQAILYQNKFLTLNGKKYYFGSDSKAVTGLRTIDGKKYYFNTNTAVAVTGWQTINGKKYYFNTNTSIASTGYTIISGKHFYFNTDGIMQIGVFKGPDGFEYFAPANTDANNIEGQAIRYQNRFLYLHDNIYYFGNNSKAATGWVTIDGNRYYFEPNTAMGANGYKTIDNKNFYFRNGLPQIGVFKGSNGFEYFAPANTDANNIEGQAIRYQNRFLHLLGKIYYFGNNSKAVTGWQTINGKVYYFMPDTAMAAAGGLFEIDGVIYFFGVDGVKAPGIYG
T2 sequence (P18177 whole entry): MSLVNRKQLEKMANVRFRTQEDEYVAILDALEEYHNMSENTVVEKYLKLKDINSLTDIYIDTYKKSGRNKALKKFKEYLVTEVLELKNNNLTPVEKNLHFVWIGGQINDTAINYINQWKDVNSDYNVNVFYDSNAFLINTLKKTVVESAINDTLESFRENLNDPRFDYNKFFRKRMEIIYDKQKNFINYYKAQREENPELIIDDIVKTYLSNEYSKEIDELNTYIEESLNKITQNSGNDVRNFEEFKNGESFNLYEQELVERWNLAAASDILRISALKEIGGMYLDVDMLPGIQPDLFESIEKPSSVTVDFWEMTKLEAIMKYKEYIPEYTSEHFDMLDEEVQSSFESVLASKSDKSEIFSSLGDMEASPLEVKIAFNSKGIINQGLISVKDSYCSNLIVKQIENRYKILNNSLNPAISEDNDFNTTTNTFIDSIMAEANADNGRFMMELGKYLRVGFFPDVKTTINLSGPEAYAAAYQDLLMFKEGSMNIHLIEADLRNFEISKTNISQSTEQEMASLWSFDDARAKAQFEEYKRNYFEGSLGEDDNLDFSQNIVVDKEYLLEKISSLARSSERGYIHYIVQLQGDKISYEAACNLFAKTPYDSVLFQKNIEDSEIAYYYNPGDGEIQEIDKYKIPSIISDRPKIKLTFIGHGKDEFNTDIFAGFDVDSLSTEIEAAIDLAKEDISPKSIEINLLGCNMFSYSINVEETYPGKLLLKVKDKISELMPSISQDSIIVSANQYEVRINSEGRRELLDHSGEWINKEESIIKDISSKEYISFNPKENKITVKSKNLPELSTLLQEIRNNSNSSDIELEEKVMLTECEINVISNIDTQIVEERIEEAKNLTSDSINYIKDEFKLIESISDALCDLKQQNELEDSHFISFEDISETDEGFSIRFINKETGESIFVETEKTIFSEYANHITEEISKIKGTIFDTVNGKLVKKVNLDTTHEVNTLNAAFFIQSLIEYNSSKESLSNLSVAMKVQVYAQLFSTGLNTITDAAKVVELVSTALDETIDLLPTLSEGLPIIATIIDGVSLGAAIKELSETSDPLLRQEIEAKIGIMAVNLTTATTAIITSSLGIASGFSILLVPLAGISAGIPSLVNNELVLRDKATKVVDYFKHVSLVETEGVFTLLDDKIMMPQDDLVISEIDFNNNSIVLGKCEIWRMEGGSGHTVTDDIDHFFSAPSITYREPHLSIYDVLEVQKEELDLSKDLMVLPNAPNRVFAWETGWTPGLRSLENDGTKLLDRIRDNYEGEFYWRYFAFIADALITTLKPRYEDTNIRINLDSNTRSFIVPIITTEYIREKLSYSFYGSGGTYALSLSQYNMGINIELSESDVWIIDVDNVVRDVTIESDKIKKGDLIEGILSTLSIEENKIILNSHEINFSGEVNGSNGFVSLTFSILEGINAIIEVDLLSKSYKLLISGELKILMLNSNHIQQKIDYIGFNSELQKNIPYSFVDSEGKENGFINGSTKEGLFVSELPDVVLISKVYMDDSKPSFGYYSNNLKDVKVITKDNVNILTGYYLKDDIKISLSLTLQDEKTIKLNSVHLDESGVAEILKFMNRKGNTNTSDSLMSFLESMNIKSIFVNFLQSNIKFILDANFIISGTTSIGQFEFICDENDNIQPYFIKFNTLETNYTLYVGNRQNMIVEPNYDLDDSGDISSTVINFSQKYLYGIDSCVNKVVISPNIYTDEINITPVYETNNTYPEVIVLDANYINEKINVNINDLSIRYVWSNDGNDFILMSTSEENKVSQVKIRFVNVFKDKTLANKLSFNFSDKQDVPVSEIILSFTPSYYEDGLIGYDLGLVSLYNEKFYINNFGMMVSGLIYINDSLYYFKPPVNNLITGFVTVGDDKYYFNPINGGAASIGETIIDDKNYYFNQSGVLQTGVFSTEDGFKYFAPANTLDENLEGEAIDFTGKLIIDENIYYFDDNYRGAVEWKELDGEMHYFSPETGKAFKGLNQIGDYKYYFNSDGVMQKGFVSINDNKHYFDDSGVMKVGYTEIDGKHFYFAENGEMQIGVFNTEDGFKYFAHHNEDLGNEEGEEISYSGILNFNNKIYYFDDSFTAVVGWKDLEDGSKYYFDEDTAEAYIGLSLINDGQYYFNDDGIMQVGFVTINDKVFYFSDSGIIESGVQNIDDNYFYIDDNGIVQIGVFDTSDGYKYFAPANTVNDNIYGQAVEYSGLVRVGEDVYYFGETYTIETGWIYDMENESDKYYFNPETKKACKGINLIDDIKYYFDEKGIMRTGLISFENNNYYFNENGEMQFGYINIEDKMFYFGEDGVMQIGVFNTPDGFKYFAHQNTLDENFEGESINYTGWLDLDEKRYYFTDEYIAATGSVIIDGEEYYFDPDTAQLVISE

Turning to `C[C@H](CCC(=O)NCCS(=O)(=O)O)[C@H]1CC[C@H]2[C@@H]3[C@H](O)C[C@@H]4C[C@H](O)CC[C@]4(C)[C@H]3C[C@H](O)[C@]12C` [sodium taurocholate], the “effect on C. difficile spores in plate assay medium” value in the test on C. difficile spores was “serves as a germinant”. Also, the “inhibition of β-glucosidases, mode” value was “non-competitively inhibit” with mammalian β-glucosidases (listed as Sodium taurocholate) and “non-competitive” in the test on mammalian β-glucosidases (listed as taurocholate). Further, the “inhibition of cleavage activity of the toxins at low concentration” value in test [1] is recorded as “does not inhibit”. At C. difficile toxin A [2], the “inhibition of toxin A PNPG cleavage activity, dose response” value is reported as “dose-dependent”. The inhibition at 300000 µM came to 71% on C. difficile toxin A [3] and 86% on C. difficile toxin B [5]. Besides, at C. difficile toxin B [4], the “inhibition of toxin B PNPG cleavage activity, dose response” value was “dose-dependent”.
On to `O=[N+]([O-])c1ccc(O[C@@H]2O[C@H](CO)[C@@H](O)[C@H](O)[C@H]2O)cc1` [PNPG, p-nitrophenyl-β-D-glucopyranoside], for which the “cleavage by the toxins compared with other substrates evaluated” value in test [6] was “most efficient and sensitive, and had the lowest background”.
Regarding phosphatidylserine, the “inhibition of β-glucosidases, mode” value in the test with mammalian β-glucosidases is reported as “non-competitive”.
